The text below walks through data of PMC7060258 (Scientific Reports, 2020).

Each structure is given as a SMILES string.

One assay concerns rat. The following applies: cited from earlier work.
The test system of assay [1] is murine neuroblastoma Neuro2a cells. Kind of assay: Intracellular ROS formation level (H2DCF-DA). The following applies: 6-OHDA 25 µM alone. It is filed as cell-based. The protocol: We estimated whether rHCIQ2c1 is able to inhibit reactive oxygen species (ROS) production. After incubation of Neuro2a cells with rHCIQ2c1 (up to 10 µM) and 6-OHDA (25 µM), ROS content was evaluated by measurement of dichlorofluorescin intensity.
The intracellular ROS level was detected using 2,7-dichlordihydrofluorescein diacetate (H2DCF-DA) solution (Molecular Probes, final concentration 10 µM). In this study, mouse neuroblastoma Neuro2a cells seeded on 96-well plates were washed twice with serum-free DMEM and thereafter incubated for 1 h in serum-free MEM medium in the presence of compounds in concentrations from 10 pM to 10 µM. Cell were treated with 6-OHDA (25 μM) for 30 min at 37 °C with 5% CO2. Followed by treatment with 6-OHDA, the cells were washed once with PBS. After washing with serum-free DMEM medium, the cells were loaded with H2DCF-DA for 30 min. The intensity of dichlorofluorescin fluorescence was measured with plate reader PHERAstar FS (BMG Labtech, Germany) at λex = 485 nm and λem = 518 nm. The cytoprotective effect of peptides and the increase in cell viability under their action was calculated as a percentage, taking the cell viability treated with 6-OHDA as 100%.

For `Nc1ccncc1` [4-aminopyridine], the “Effect on MPTP-induced neurodegeneration and rat behavioral disturbances” value in the assay with rat was “suppresses MPTP-induced neurodegeneration and rat behavioral disturbances”.

Regarding `NCCc1cc(O)c(O)cc1O` [6-OHDA, 6-hydroxydopamine, reference compound], in assay [1], the ROS level entry is on record as “highest ROS level”.
